Data set [1] deals with blood samples obtained from a healthy individual. The class given is cell-based. As for the experimental part:
The hemolytic activity of the peptides was obtained, according to a previously described procedure. Briefly, blood samples obtained from a healthy individual were centrifuged at 2000 g for 10 min at 4 °C and then washed with PBS 1X three times. The supernatant was diluted with PBS 1X until reaching a concentration of 6 × 10^8 cells/mL. Assays were performed in duplicate with the peptides at concentrations of 5 and 50 µM, including AMP from Bothrops asper. Triton X-100 (Sigma Aldrich) at 0.5% was used as positive control and PBS 1X as negative control. The assay is performed by mixing 65 µL of the cell suspension with 65 µL of each peptide at the indicated concentrations, and 65 µL of each control, incubating at 37 °C for 1 h. The samples are centrifuged at 3000 g for 5 min; 80 µL of supernatant is taken and placed in a 96-well plate together with 80 µL of milliQ water to finally measure its absorbance at 540 nm.
Hemolysis is calculated according to Equation (1). (1) %Hemolysis=[…]

The subject of a further data set is S. aureus. Nature of the data set: Membrane permeabilization by SYTOX green assay. The class given is cell-based, Staphylococcus aureus. As to conditions: S. aureus 1 × 10^6 CFU/mL in PBS 1X; 90 µL bacteria, 5 µL peptide at 200 µM, 5 µL SYTOX Green at 100 µM; 30 cycles of one minute at 30 °C; triplicate. On the procedure:
(§1) To verify the effect of peptides on cell membrane integrity, a SYTOX green uptake assay was used, as previously described. Briefly, E coli and S. aureus cultures in exponential phase of growth were centrifuged at 2000× g for 5 min and washed with PBS 1X to prepare a solution at a concentration of 1 × 10^6 CFU/mL in PBS 1X. Then, in 100 μL qPCR tubes, 90 µL of the bacterial solution, 5 µL of peptide at 200 µM and 5 µL of SYTOX Green dye at 100 µM were added. The q-PCR tubes were placed in an Applied Biosystems StepOnePlus™ Real-Time PCR Systems thermocycler, programmed with 30 cycles for one minute at 30 °C, using the Syber green filter, recording the fluorescence data at the end of each cycle. Each assay was performed in triplicate.

For the next data set, the system named is E coli. The data set can be described thus: Membrane permeabilization by SYTOX green assay. The class given is cell-based, Escherichia coli. The note with it: E. coli 1 × 10^6 CFU/mL in PBS 1X; 90 µL bacteria, 5 µL peptide at 200 µM, 5 µL SYTOX Green at 100 µM; 30 cycles of one minute at 30 °C; triplicate. On the procedure:
as §1

On to triton X-100, for which the Hemolytic activity result in data set [1] is recorded as “hemolysis was only observed”. Turning to KKWRWWLKALAKK, the “SYTOX green fluorescence (membrane permeabilization)” value with S. aureus and in the data set with E coli was “high fluorescence” throughout.

These data come from PMC9788509, “Arginine Homopeptide of 11 Residues as a Model of Cell-Penetrating Peptides in the Interaction with Bacterial Membranes” (Membranes, 2022).
